{"source": "patent US11497788B2", "about": "“Supramolecular glycosaminoglycans” (Northwestern University, priority 2015, dated 2022)", "key": {"[1]": {"test_system": "rat posterolateral lumbar intertransverse spinal fusion model", "experiment": "Rat posterolateral lumbar intertransverse spinal fusion model", "format": "in vivo", "protocol": "Rat Posterolateral Lumbar Intertransverse Spinal Fusion: The study was approved by and conducted in line with the Institutional Animal Care and Use Committee (IACUC) policies and procedures. […] female Sprague-Dawley rats at ages 12-16 weeks were utilized. Animals were assigned to the following treatment groups: 1) 100 ng BMP-2, n=8; 2) 100 ng BMP-2 with PA 4 nanofibers, n=12; and 3) 100 ng BMP-2 with PA 1 nanofibers, n=12. The denoted BMP-2 dose refers to total growth factor amount implanted via two absorbable collagen sponges per animal. For instance, in the 100 ng BMP-2 control group, two collagen sponges (1.75×0.5×0.5 cm) were each impregnated with 50 ng BMP-2 in 100 uL saline containing 6 mM CaCl2, then implanted adjoining the L4-L5 transverse processes on either side of the spine. For PA groups, 100 uL of PA solutions (6 mM) were used in place of saline.\nPA solutions were spun down, pipetted for homogeneous mixing, then mixed with BMP-2 at 10:1 vol. ratio to yield 6 mM PA with appropriate BMP-2 concentrations.\nSurgical Procedures: Rats were maintained on a heating pad under continuous anesthesia with an isoflurane inhalational anesthetic delivery system, and they were monitored by an assistant for cardiac or respiratory difficulties throughout the procedure. Utilizing a previously-described surgical technique (refs. 23, 41; incorporated by reference in their entireties), the L4 and L5 transverse processes were exposed, irrigated with sterile gentamicin/saline solution, the superficial cortical layer decorticated with a high-speed burr, then collagen sponges with appropriate treatments were implanted bilaterally in the paraspinal musculature between the transverse processes. Afterwards, the fascia and skin incisions were closed, and rats were housed in separate cages.\nManual Palpation: Fusion was assessed via manual palpation following euthanasia at 8 weeks post-surgery. Spines were scored by three blinded observers using a previously established scoring system: 0=no bridging; 1=unilateral bridging; and 2=bilateral bridging (23, 41). To assess fusion rate, spines that received an average score of 1.0 or greater were considered successfully fused.\nMicro-Computed Tomography: Synchrotron micro-computed tomography (μCT) was performed on representative samples at station 2-BM of the APS (42, 43). Due to the size constraint of the μCT set-up, harvested spines were sagittally cut along the midline of the vertebrate body, using a slow-speed diamond saw (ref. 43; incorporated by reference in its entirety). Data were acquired with 27 keV photons, projections were recorded every 0.12° over 180°, and reconstruction was on a 2,048×2,048 grid with isotropic 1.45 μm voxels using TomoPy (44). […]"}, "[2]": {"test_system": "BMP-2 signaling in C2C12 cells", "experiment": "C2C12 osteoblast differentiation with BMP-2, alkaline phosphatase (ALP) activity", "format": "cell-based, mouse", "details": "C2C12, BMP-2 75 ng/mL, 3 days", "protocol": "C2C12 Cell Culture: C2C12 mouse myoblasts (ATCC) were maintained in Dulbecco's Modified Eagle's Medium with high glucose and L-glutamine (DMEM, ATCC), supplemented with 100 U/mL of penicillin and 100 μg/mL streptomycin (P/S, Life Technologies) and 10% heat inactivated FBS (Life Technologies), and passaged at 80-90% confluence. Media was changed every 2 days. Passages 3 to 8 were used for experiments. Cells were grown at 37° C., 5% CO2 in a humidified atmosphere. Cells were detached following a 3 minute incubation at 37° C. with 0.05% Trypsin-EDTA (Life Technologies), then resuspended in DMEM (10% FBS). Unless stated otherwise, cells were seeded at 75,000 cells/mL (400 μL/well in a 48-well plate), and allowed to attach for a minimum of 3 hours prior to experiments.\nC2C12 Osteoblast Differentiation: PA samples were thermally annealed as described for Cryo-TEM. PA solutions were spun down, pipetted for homogeneous mixing, then diluted to 1 mM with DMEM (no FBS). In a 1.5 mL microcentrifuge tube, PA solutions were further diluted with DMEM (5% FBS), gently vortexed, and appropriate amounts of GFs (20 μg/mL) were added to yield [PA]=125 μM and [GF]=375 ng/mL. For mixing, the microcentrifuge tube was gently inverted several times by hand. Following, cells were treated by adding a 100 μl, of the PA/GF mixture per well (48-well plate), yielding a final 500 μl, differentiation medium with [PA]=25 μM and [GF]=75 ng/mL. For controls, the initial 5 mM PA solution was substituted with either PBS alone (saline) or heparin in PBS at appropriate concentrations. Cells were cultured for 3 days without changing the media, and osteoblast differentiation was assessed.\nAlkaline Phosphatase Activity: Alkaline phosphatase (ALP) activity was measured as a marker of osteoblast differentiation (ref. 38; incorporated by reference in its entirety). On day 3, media was removed, and cells were lysed with a 100 μL, of M-PER Mammalian Protein Extraction Reagent (Life Technologies), supplemented with 1×Halt Protease Inhibitor Cocktail (Thermo Fisher Scientific), for 30 minutes on an orbital shaker. A 20 μL, volume of the cell lysate was incubated with 200 μL, of the QUANTI-Blue colorimetric ALP assay (InvivoGen) for 30 minutes to 2 hours at 37° C., in duplicates. The ALP activity was assessed by reading the OD at 630 nm with Cytation3 microplate reader (BioTek). Data were normalized to the respective endogenous DNA levels using Quant-iT PicoGreen dsDNA Assay Kit (Life Technologies). Two separate experiments with 4 replicates each were averaged for statistical analysis. […]"}, "BMP-2": {"target": "T1, BMP-2 (Homo sapiens, UniProt P12643)", "T1 construct": "purchased Medtronic Sofamor Danek (Minneapolis, Minn.)", "T1 sequence (P12643 283-396)": "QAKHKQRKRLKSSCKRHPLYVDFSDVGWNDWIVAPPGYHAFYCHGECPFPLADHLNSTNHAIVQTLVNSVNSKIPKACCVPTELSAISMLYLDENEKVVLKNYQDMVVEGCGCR", "experiment": "Confocal fluorescence imaging of Cy5-labeled BMP-2 with PA nanofibers", "format": "binding", "details": "co-assembled with Cy3-PA 5 mol %; mixed 24 h", "protocol": "Confocal Fluorescence Imaging: PA 1, PA 4, and Cy3-PA were dissolved to 6.6 mM in saline with 6.6 mM CaCl2, pH 7.2. […] Following, PA solutions were mixed with Cy5-BMP-2 (57 μM) at 10:1 vol. ratio to yield [PA]=6 mM and [BMP-2]=5.2 μM, and incubated overnight. For confocal imaging, 20 μl of the solutions containing Cy5-labeled protein and Cy3-Labeled PA nanofibers were coverslipped in IMMU-MOUNT (Termo Scientific) and visualized using a Nikon A1R confocal laser-scanning microscope with GaAsP detectors."}}, "data": [{"substance": "3,4,6S-GlcNAc PA (VVAAEEK) [PA 1, glycosylated peptide amphiphile: Alkyne PA click-conjugated with trisulfated monosaccharide 1]", "values": [{"measurement": "fusion scores, blind manual palpation", "setting": "[1]; 100 ng BMP-2, 6 mM PA, 8 weeks, relative to PA 4 nanofibers or saline", "result": "highest fusion scores"}, {"measurement": "fusion rate", "setting": "[1]; 100 ng BMP-2, 6 mM PA, 8 weeks, score ≥1 = fused", "result": 100, "unit": "%"}, {"measurement": "new bone formation, synchrotron micro-computed tomography", "setting": "[1]; 100 ng BMP-2 delivered with nanofibers", "result": "formation of new bone connecting the transverse processes"}, {"measurement": "reduction of required GF (BMP-2) for spinal fusion", "setting": "[1]; 100 ng versus 10 μg BMP-2 required in the model", "result": 100, "unit": "fold"}, {"measurement": "effect on BMP-2 activity / osteoblast differentiation (in words)", "setting": "[2]", "result": "dramatically amplified"}, {"measurement": "colocalization of Cy5-labeled BMP-2 with PA nanofibers", "setting": "BMP-2", "result": "strong colocalization"}]}]}
